For one test, the target named is T1, HLA-DR1 (DRB1*0101) (Homo sapiens, UniProt P01903+P01911, A100R/D57E/F55L/F60I/F76Y/I96L/L162R/M171V/P40L/Q125E/R42F/V115G/Y59C).
T1 construct: endogenous in cells; host or cells: homozygous EBV-transformed human B lymphocyte lines; immunopurified with antibody L243
The experiment in a line: biochemical. The format is binding. The settings on record: for IC50: DRB1*0101.

The target in the next test is T2, HLA-DR4 (DRB1*0401) (Homo sapiens, UniProt P01903+P01911, A100K/A169T/F76Y/I96L/K127E/L162R/M171V/N62H/P40V/Q125Y/R42H/S133A/S149N/S66Y/V115G/V209L/W38E).
T2 construct: endogenous in cells; host or cells: homozygous EBV-transformed human B lymphocyte lines; immunopurified with antibody L243
The experiment in a line: biochemical. The test is classed as binding. The settings on record: read-out: binds with good affinity to DR4.

In another test the target is HLA-DR7 (DRB1*0701) (Homo sapiens, UniProt P01903+P01911, A100R/A102G/A103Q/D57E/D86V/E43K/F76Y/K127E/L162R/M171V/P40G/Q125H/Q99D/R33Q/R42Y/R54Q/S133A/S66F/T210M/V115G/Y107V/Y59L/Y89S). The test can be described thus: biochemical. The test is classed as binding. The settings on record: read-out: binds with good affinity to DR7.
A further test concerns the target HLA-DR11 (DRB1*1101) (Homo sapiens, UniProt P01903+P01911, A100R/A169T/A87E/I96F/K41T/L162R/M171V/P40S/Q125H/Q178H/Q39Y/Q99D/R42S/S66Y/T262R/V115G/W38E). The test can be described thus: biochemical. The test is classed as binding. The settings on record: read-out: binds with good affinity to DR11.
The next test concerns the target T3, HLA-DR15 (DRB1*1501) (Homo sapiens, UniProt P01903+P01911).
T3 construct: endogenous in cells; host or cells: homozygous EBV-transformed human B lymphocyte lines; immunopurified with antibody L243
The test can be described thus: biochemical. The test is classed as binding. The note with it: DRB1*1501; read-out: binds with good affinity to DR15.

The next test has as its target T4, HLA-DRB3 (DRB3*0101) (Homo sapiens, UniProt P01903+P79483).
T4 construct: endogenous in cells; host or cells: homozygous EBV-transformed human B lymphocyte lines; immunopurified with antibody L243
The experiment in a line: HLA II/peptide binding assay, HLA-DRB3. The settings on record: read-out: binds with good affinity to DRB3.

A further test deals with T5, HLA-DRB4 (DRB4*0101) (Homo sapiens, UniProt P01903+P13762, G164S).
T5 construct: endogenous in cells; host or cells: homozygous EBV-transformed human B lymphocyte lines; immunopurified with antibody L243
The experiment in a line: biochemical. The test is classed as binding. The settings on record: read-out: binds with good affinity to DRB4.

The target in another test is T6, HLA-DRB5 (DRB5*0101) (Homo sapiens, UniProt P01903+Q30154).
T6 construct: endogenous in cells; host or cells: homozygous EBV-transformed human B lymphocyte lines; immunopurified with antibody L243
The test can be described thus: biochemical. The settings on record: read-out: binds with good affinity to DRB5. The format is binding.

For a further test, the target named is HLA-DP402 (DPB1*0402) (Homo sapiens, UniProt P04440+P20036, A65V/A84D/A85E/L207M). The test can be described thus: biochemical. The settings on record: DP*0402; read-out: binds with good affinity to DP402. The test is classed as binding.
Test [1] concerns T lymphocytes derived from PBMCs from patients chronically infected with HCV. The format is cell-based, human. The note with it: supernatant 48 h, —: not detected.
Another test deals with DR7. The experiment in a line: DR7.
For another test, the system named is DR13. The test can be described thus: DR13. An excerpt: (§1) Table printed on a drawing sheet, Figure 2
Where the first naming reader finds the target: head: DR13

Another test has as its system DR15. The experiment in a line: DR15.
The next test relates to DRB4. The experiment in a line: DRB4.
From the text: as §1
Where the first naming reader finds the target: head: DRB4

Another test has as its system DRB5. The test can be described thus: DRB5.
For a further test, the system named is DRB3. The test can be described thus: DRB3.
Another test has as its system DR11. The test can be described thus: DR11.
From the text: as §1
Where the first naming reader finds the target: head: DR11

The test system of the next test is DP401. The experiment in a line: DP401.
In the next test the test system is DP402. The test can be described thus: DP402.
Another test has as its target HLA-DP401 (DPB1*0401) (Homo sapiens, UniProt P04440+P20036). The experiment in a line: biochemical. The format is binding. The settings on record: DP*0401; read-out: binds with good affinity to DP401.
For another test, the system named is DR3. The test can be described thus: DR3.
From the text: as §1
Where the first naming reader finds the target: head: DR3

A further test has as its target T7, HLA-DR3 (DRB1*0301) (Homo sapiens, UniProt P01903+P01911, A100K/A102G/A103R/A169T/F55Y/I96L/K41T/L162R/M171V/P40S/Q125H/Q178H/Q39Y/R42S/S66N/T106N/T262R/W38E/Y61H).
T7 construct: endogenous in cells; host or cells: homozygous EBV-transformed human B lymphocyte lines; immunopurified with antibody L243
The experiment in a line: biochemical. The format is binding. The note with it: read-out: binds with good affinity to DR3.

The next test addresses HLA-DR13 (DRB1*1301) (Homo sapiens, UniProt P01903+P01911, A100E/A169T/K41T/L162R/M171V/P40S/Q125H/Q178H/Q39Y/Q99D/R42S/S66N/T262R/W38E/Y61H). The experiment in a line: biochemical. The format is binding. The note with it: read-out: binds with good affinity to DR13.
A further test relates to DR1. The test can be described thus: DR1.
The subject of another test is DR4. The test can be described thus: DR4.
Setting [2] is: read-out: binds with good affinity to DR1.

Read-outs that look alike come from different tables or passages of the source. Residues, ends and D or L forms follow the SMILES beside them.

HLA-DR11 (DRB1*1101), sequence (P01903 26-254 limits assumed, other chains not shown): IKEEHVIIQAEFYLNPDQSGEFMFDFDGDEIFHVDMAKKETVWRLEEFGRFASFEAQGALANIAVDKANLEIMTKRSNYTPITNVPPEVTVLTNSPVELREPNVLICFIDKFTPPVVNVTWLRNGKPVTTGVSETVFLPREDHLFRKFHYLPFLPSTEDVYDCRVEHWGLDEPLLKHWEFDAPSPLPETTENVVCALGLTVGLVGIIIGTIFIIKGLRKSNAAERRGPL

For `CSCC[C@H](NC(=O)[C@H](Cc1ccc(O)cc1)NC(=O)[C@H](C)NC(=O)[C@H](CCCNC(=N)N)NC(=O)[C@H](CC(C)C)NC(=O)[C@H](CCCNC(=N)N)NC(=O)[C@@H](NC(=O)[C@@H](NC(=O)[C@@H](NC(=O)[C@H](CCC(=O)O)NC(=O)[C@H](C)NC(=O)[C@@H]1CCCN1C(=O)[C@@H](NC(=O)[C@H](CC(C)C)NC(=O)[C@H](CCC(=O)O)NC(=O)[C@H](Cc1ccc(O)cc1)NC(=O)[C@H](Cc1c[nH]c2ccccc12)NC(=O)[C@H](C)NC(=O)[C@H](C)NC(=O)CN)[C@@H](C)O)[C@@H](C)O)[C@@H](C)O)C(C)C)C(=O)N[C@@H](CC(N)=O)C(=O)N[C@H](C(=O)N1CCC[C@H]1C(=O)NCC(=O)N[C@@H](CC(C)C)C(=O)N1CCC[C@H]1C(=O)N[C@H](C(=O)N[C@@H](C)C(=O)N[C@@H](CCC(N)=O)C(=O)N[C@@H](CC(=O)O)C(=O)O)C(C)C)[C@@H](C)O` [28N 1524-1553], the IC50 on HLA-DR1 (DRB1*0101) (competition with biotinylated tracer HA 306-318, read-out: IC50, binding to HLA-DR1) was 2 nM; at HLA-DR1 (DRB1*0101) (setting [2]), < 1000 nM; on HLA-DR4 (DRB1*0401) it was < 1000 nM; at HLA-DR7 (DRB1*0701), < 1000 nM; at HLA-DR11 (DRB1*1101) it was < 1000 nM; at HLA-DR15 (DRB1*1501), < 1000 nM. The IC50 is < 1000 nM at HLA-DRB3 (DRB3*0101); < 1000 nM on HLA-DRB4 (DRB4*0101); < 1000 nM on HLA-DRB5 (DRB5*0101); < 1000 nM at HLA-DP402 (DPB1*0402); 5 nM in the test on DR7; 10000 nM in the test with DR13. For the same compound, the IC50 in the test on DR15 came out at 1 nM; with DRB4, 30 nM; in the test with DRB5 it was 20 nM. Also, the “affinity for HLA-DR1 (in words)” value at HLA-DR1 (DRB1*0101) (legend of FIG. 4) is on record as “high affinity”. Further, in test [1] (patient 067), the IL2 result is “— 76 pg/ml”. Further, the IL10 in test [1] (patient 067) worked out at 86 pg/mL; in test [1] (patient 078), 21 pg/mL; in test [1] (patient 829) it was 67 pg/mL. For the same compound, the IL4 entry in test [1] (patient 093) is reported as “— 11 pg/ml”.
For `CC[C@H](C)[C@H](NC(=O)CNC(=O)[C@@H]1CCCN1C(=O)[C@@H](N)CCCCN)C(=O)N[C@@H](Cc1ccc(O)cc1)C(=O)N[C@@H](CCCNC(=N)N)C(=O)N[C@@H](Cc1ccccc1)C(=O)N[C@H](C(=O)N[C@@H](C)C(=O)N1CCC[C@H]1C(=O)NCC(=O)N[C@@H](CCC(=O)O)C(=O)N[C@@H](CCCNC(=N)N)C(=O)N1CCC[C@H]1C(=O)N[C@@H](CO)C(=O)NCC(=O)N[C@@H](CCSC)C(=O)N[C@@H](Cc1ccccc1)C(=O)N[C@@H](CC(=O)O)C(=O)O)C(C)C` [27N 1495-1513] (H-KPGIYRFVAPGERPSGMFD-OH; N-terminus and C-terminus assumed), the IC50 on HLA-DR1 (DRB1*0101) (setting [2]), on HLA-DR7 (DRB1*0701), at HLA-DR11 (DRB1*1101), on HLA-DR15 (DRB1*1501), at HLA-DRB3 (DRB3*0101) and on HLA-DRB4 (DRB4*0101) was < 1000 nM in each case. Moreover, the IC50 at HLA-DRB5 (DRB5*0101) is < 1000 nM; with DR7, 313 nM; in the test on DR15, 150 nM; in the test with DRB3, 40000 nM; in the test with DRB5 it was 2 nM; in the test on DR11, 175 nM. Also, the IC50 with DP401 and with DP402 was > 100000 nM each time.
Regarding `CC(C)C[C@H](NC(=O)[C@H](CCCNC(=N)N)NC(=O)[C@@H]1CCCN1C(=O)CNC(=O)[C@H](CCCNC(=N)N)NC(=O)[C@H](CCCNC(=N)N)NC(=O)[C@@H]1CCCN1C(=O)[C@H](CC(C)C)NC(=O)[C@H](CC(C)C)NC(=O)[C@H](Cc1ccc(O)cc1)NC(=O)[C@@H](NC(=O)CNC(=O)CNC(=O)[C@@H](N)C(C)C)C(C)C)C(=O)NCC(=O)N[C@H](C(=O)N[C@@H](CCCNC(=N)N)C(=O)N[C@@H](C)C(=O)N[C@H](C(=O)N[C@@H](CCCNC(=N)N)C(=O)N[C@@H](CCCCN)C(=O)N[C@H](C(=O)N[C@@H](CO)C(=O)N[C@@H](CCC(=O)O)C(=O)N[C@@H](CCCNC(=N)N)C(=O)N[C@@H](CO)C(=O)N[C@@H](CCC(N)=O)C(=O)O)[C@@H](C)O)[C@@H](C)O)C(C)C` [2C 31-57], the IC50 at HLA-DP401 (DPB1*0401) was < 1000 nM; at HLA-DP402 (DPB1*0402) it was < 1000 nM; in the test on DR3, > 100000 nM; in the test on DR7 it was 500 nM; in the test on DRB3, > 100000 nM; with DRB5, 3 nM. In addition, the IC50 in the test on DP401 and in the test with DP402 was > 100000 nM each time.
In the case of `CC[C@H](C)[C@H](NC(=O)[C@@H](NC(=O)[C@H](Cc1ccccc1)NC(=O)[C@@H](NC(=O)[C@@H]1CCCN1C(=O)[C@H](CC(=O)O)NC(=O)[C@H](CC(C)C)NC(=O)[C@H](CO)NC(=O)[C@H](Cc1ccccc1)NC(=O)[C@H](CC(=O)O)NC(=O)[C@@H](NC(=O)[C@@H](NC(=O)[C@H](CCC(N)=O)NC(=O)[C@@H](NC(=O)[C@@H](NC(=O)[C@H](C)NC(=O)[C@@H](N)[C@@H](C)O)C(C)C)[C@@H](C)O)[C@@H](C)O)C(C)C)[C@@H](C)O)[C@@H](C)O)C(=O)N[C@@H](CCC(=O)O)C(=O)N[C@H](C(=O)N[C@H](C(=O)N[C@H](C(=O)N[C@@H](CC(C)C)C(=O)N1CCC[C@H]1C(=O)N[C@@H](CCC(N)=O)C(=O)N[C@@H](CC(=O)O)C(=O)N[C@@H](C)C(=O)O)[C@@H](C)O)[C@@H](C)CC)[C@@H](C)O` [26N 1456-1481], the IC50 at HLA-DR1 (DRB1*0101) (setting [2]), on HLA-DR3 (DRB1*0301), at HLA-DR4 (DRB1*0401), at HLA-DR7 (DRB1*0701), on HLA-DR11 (DRB1*1101) and on HLA-DR13 (DRB1*1301) was < 1000 nM in each case. Also, the IC50 was < 1000 nM at HLA-DR15 (DRB1*1501); < 1000 nM on HLA-DRB3 (DRB3*0101); < 1000 nM on HLA-DRB4 (DRB4*0101); < 1000 nM on HLA-DRB5 (DRB5*0101); 2 nM in the test with DR1; 8 nM with DR4. The IC50 is 20 nM with DR7, 300 nM in the test with DR13 and 40 nM with DRB3.
